Measured values: patent US5925666A, “Pharmaceutical compositions and methods for treating compulsive disorders using pyrrolidine derivatives” (Guilford Pharmaceuticals Inc., priority 1997, dated 1999)
“And” between values parts separate entries of the source, which are not always exact repeats. Identical values can stand only once.

Assays:
Male Long-Evans rats = test: Inhibition of nicotine self-administration in male Long-Evans rats; type: in vivo, rat; settings: 10, 20 and 30 mg/kg i.p. 15 minutes before 60 minute session; nicotine 30 μg/kg/infusion; FIG. 1
Method: Male Long-Evans rats were trained to self-administer nicotine on a fixed ratio schedule of reinforcement, as described by Corrigall et al., Psychopharmacology, Vol. 104, No. 2, pp. 171-176 (1991) and Corrigall et al., Psychopharmacology, Vol. 107, Nos. 2-3, pp. 285-289 (1992). In brief, male Long-Evans rats were food deprived for a short period of time (24-48 hours) and trained to press a lever in an operant responding chamber on an FR-1 schedule of food reinforcement. Once trained, each rat was surgically prepared with a chronic intravenous catheter implanted into the jugular vein. The rats were allowed 1 week to recover from surgery.
After 1 week, nicotine self-administration studies were initiated on an FR-1 with a 60 second signaled time-out following each infusion. During time-out, responding on the lever had no scheduled consequence. Nicotine self-administration sessions were 60 minutes in duration. Each nicotine infusion contained 30 μg of nicotine/kg rat and were delivered in a volume of 54 μl over an infusion duration of 0.3 seconds. 15 minutes before the self-administration sessions, the rats were pre-treated intraperitoneally with (R)-(+)-α,α-diphenyl-2-pyrrolidinemethanol at doses of 10, 20 and 30 mg/kg.

[1] = molecular target: T1, human dopamine transporter (Homo sapiens, UniProt Q01959); test: [3H]Dopamine uptake inhibition, hDAT cells; type: cell-based; settings: for Uptake to Binding Ratio (Kiuptake/Kibinding): ratio of Kiuptake to Kibinding at hDAT
T1 construct: expressed in transfected cells
T1 sequence (Q01959 whole entry): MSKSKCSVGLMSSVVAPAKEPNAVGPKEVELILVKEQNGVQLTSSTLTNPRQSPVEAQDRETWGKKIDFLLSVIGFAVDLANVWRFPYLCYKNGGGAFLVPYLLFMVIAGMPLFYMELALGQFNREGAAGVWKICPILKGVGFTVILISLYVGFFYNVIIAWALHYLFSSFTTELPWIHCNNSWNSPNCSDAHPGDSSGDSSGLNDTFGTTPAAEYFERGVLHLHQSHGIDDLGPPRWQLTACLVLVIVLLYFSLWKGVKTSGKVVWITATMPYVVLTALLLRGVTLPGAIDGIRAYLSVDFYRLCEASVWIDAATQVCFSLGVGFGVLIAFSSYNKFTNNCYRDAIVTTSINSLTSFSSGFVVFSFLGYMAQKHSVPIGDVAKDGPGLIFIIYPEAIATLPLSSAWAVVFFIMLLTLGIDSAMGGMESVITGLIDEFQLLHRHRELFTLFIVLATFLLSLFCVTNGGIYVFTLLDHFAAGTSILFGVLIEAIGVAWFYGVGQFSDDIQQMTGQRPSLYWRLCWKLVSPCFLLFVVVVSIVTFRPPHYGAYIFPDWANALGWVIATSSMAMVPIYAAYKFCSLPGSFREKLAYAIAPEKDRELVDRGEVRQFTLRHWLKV

[2] = molecular target: T2, cocaine binding site of the human dopamine transporter (Homo sapiens, UniProt Q01959); test: [3H]CFT binding at the cocaine binding site, hDAT cells
T2 construct: expressed in transfected cells
T2 sequence (Q01959 whole entry): as above

[3] = tested on: alcohol-preferring (P) line of rats; test: Inhibition of ethanol intake in alcohol-preferring rats; type: in vivo, rat; settings: 30 mg/kg i.p.
Method: The effect of systemic administration of (R)-(+)-α,α-diphenyl-2-pyrrolidinemethanol on ethanol intake in the alcohol-preferring (P) line of rats was performed as previously described by Panocka et al., Pharm. Biochem. and Behavior, 1995, 52, 2, 255-259, and Murphy et al., Alcohol, 1985, 2, 349-352. In brief, (R)-(+)-α,α-diphenyl-2-pyrrolidinemethanol (30 mg/kg i.p.) was tested in female P rats (n=8) given daily 1 hour scheduled access to a 10% (v/v) ethanol solution. A within-subject design was used where (R)-(+)-α,α-diphenyl-2-pyrrolidinemethanol treatments were tested once per week. Baseline ethanol drinking consisted of the mean of the 3 days prior to testing in which saline injections were given. (R)-(+)-α,α-diphenyl-2-pyrrolidinemethanol or saline, administered i.p. in 1 ml/kg volumes, were injected 10-15 minutes prior to ethanol access. Twenty-four hour water and daily body weights were recorded to assess non-specific drug effects. Results were analyzed using paired t-tests with baseline and test day values serving as the independent variables. Ethanol intake was recorded as amount of solution consumed (mls).

[4] = individual rats P31-P40 (b249-b258 in order)

Compound	nicotine self-administration (Male Long-Evans rats)	Ki [1]	Uptake to Binding Ratio (Kiuptake/Kibinding) [1]	Ki [2]	reduction of ethanol consumption ([3]; 1 hour access period, vs saline baseline, p<0.05)	effect on water consumption ([3]; 24 hours following administration)	Post-drug Water 24 hr ([3]; Means of rats P31-P40)	Post-drug Weight ([3]; Means of rats P31-P40)	Test Day Ethanol 1 hr (g/kg) ([3]; Means of rats P31-P40)	Test Day Ethanol 1 hr (ml) ([3]; Means of rats P31-P40)	effect on body weights ([3]; P rats)	1 hour ethanol consumption ([3]; female P rats, 10% (v/v) ethanol, mean ± S.E.M., saline baseline 8.2±0.8 mls, p<0.05)	24 hour water intake ([3]; female P rats, mean ± S.E.M., saline baseline 28±2.2 mls)	24 hour body weights ([3]; female P rats, mean ± S.E.M., saline baseline 310±6.1 g)	Post-drug Water 24 hr [3, 4]	Post-drug Weight [3, 4]	Test Day Ethanol 1 hr (g/kg) [3, 4]	Test Day Ethanol 1 hr (ml) [3, 4]
OC(c1ccccc1)(c1ccccc1)[C@H]1CCCN1 [Compound 1, (R)-(+)-α,α-diphenyl-2-pyrrolidinemethanol]	dose-dependently attenuated	0.17 µM	4.25	0.04 µM	approximately 45%	no effect	25 mL	300 g	1.2 g/kg	4.5 mL	not altered	4.5±1.2 mls	25±2.1 mls	300 ± 6.2 g	23 mL and 26 mL and 28 mL and 32 mL and 18 mL and 12 mL	329 g and 291 g and 294 g and 305 g and 290 g and 297 g and 312 g and 263 g and 323 g	1.9 g/kg and 0.3 g/kg and 0.5 g/kg and 2.4 g/kg and 1.0 g/kg and 0.8 g/kg and 0 g/kg	8 mL and 7 mL and 1 mL and 2 mL and 10 mL and 9 mL and 4 mL and 3 mL and 0 mL
OC(c1ccccc1)(c1ccccc1)[C@@H]1CCCN1 [Compound 2, (S)-(-)-α,α-diphenyl-2-pyrrolidinemethanol]	–	1.65 µM	4.12	0.4 µM	–	–	–	–	–	–	–	–	–	–	–	–	–	–
CCCN1CCC[C@H]1C(O)(c1ccccc1)c1ccccc1 [Compound 3, (S)-(-)-1-propyl-α,α-diphenyl-2-pyrrolidinemethanol]	–	10.3 µM	3.12	3.3 µM	–	–	–	–	–	–	–	–	–	–	–	–	–	–
Cc1cc(C(O)(c2ccc(F)c(C)c2)[C@@H]2CCCN2)ccc1F [Compound 4, (S)-α,α-Bis(3-methyl-4-fluorophenyl)-2-pyrrolidinemethanol]	–	0.44 µM	1.69	0.26 µM	–	–	–	–	–	–	–	–	–	–	–	–	–	–
